{"source": "paper PMC5522996", "about": "“Big conductance calcium‐activated potassium channel openers control spasticity without sedation” (British Journal of Pharmacology, 2017)", "key": {"[1]": {"test": "Stability in pooled mouse liver microsomes", "assay_type": "in vitro ADME", "conditions": "pooled mouse liver microsomes, 37°C, upper limit 100 min, read-out: t ½ in liver microsomes", "procedure": "The stability of compounds when subjected to hepatic and plasma degradation was assessed in vitro by Inpharmatica, Cambridge, UK. Compounds (1 μM) were incubated with either pooled mouse liver microsomes (0.1 mg protein mL^−1) or pooled mouse plasma at 37°C for 0, 5, 10, 20 and 40 min before termination with acetonitrile containing warfarin as an analytical internal standard. Samples were centrifuged, and the resultant supernatant analysed for parent compound. The mass responses at baseline were taken as the 100% reference values against which the disappearance of the compound was measured. The natural log of the % remaining values was used to generate linear plots of disappearance of the compounds. Half‐life values were calculated from the slope of these plots. Hepatocyte metabolism was assessed by Cyprotex, Macclesfield, and 10 μM VSN16R was incubated with primary mouse, rat, monkey (Macaque) and human hepatocytes for 1 h, and the presence of metabolites was assessed using liquid […] mass spectroscopy. The stability of VSN16R was assessed in vivo by Inpharmatica, Cyprotex and Charles Rivers, Cambridge. Blood (plasma) samples were obtained prior to and 5 min to 24 h after drug administration of 2–5 mg·kg^−1 i.v. or 5 mg·kg^−1 p.o. VSN16R into outbred mice and rats (n = 3 per time point). […] Data are expressed as mean ± SEM. […]"}, "dogs": {"system": "dogs", "test": "28 day toxicology in dogs (50, 100, 200mg/kg p.o.)", "assay_type": "in vivo, dog", "procedure": "Twenty‐eight day toxicology in rats and dogs for Investigational New Drug filing was performed by Charles Rivers (UK). Reproductive toxicology in rabbits was performed by Charles Rivers (Canada). Pharmacokinetic and/or toxicological doses ranged from 5 to 1000 mg·kg^−1 p.o. in Sprague Dawley male and female rats (n = 6‐26 per group), 50–200 mg·kg^−1 p.o. in male and female Beagle dogs (n = 6 per group) and 100–750 mg·kg^−1 p.o. in female New Zealand white rabbits (n = 9 per group). Results are expressed as mean ± SD.\nTissue Analysed Result of Tissue Analysis in Rats Result of Tissue Analysis in Dogs Artery, Aorta Negative Negative\nBone Marrow femur Negative Negative\nBone Marrow sternum Negative Negative\nBone, Sternum Negative Negative\nEpididymus Negative Negative\nAdrenal Gland Negative Negative\nMammary Grand Negative Negative\nParathyroid Gland Negative Negative\nPituitary Gland Negative Negative\nProstate Gland Negative Negative\nSalivary Gland Negative Negative\nSeminal Vesicle Gland Negative Negative\nGut associated lymphoid Negative Negative\nLarge Intestine caecum Negative Negative\nLarge Intestine colon Negative Negative\nLarge Intestine rectum Negative Negative\nMandibular Lymph Node Negative Negative\nMesenteric Lymph Node Negative Negative\nSkeletal Muscle Negative Negative\nNasal Cavity Negative Negative\nSciatic Nerve Negative Negative\nOesophagus Negative Negative\nPancreas Negative Negative […]"}, "Beagle dogs": {"system": "Beagle dogs", "test": "Telemetry of heart rate and blood pressure in Beagle dogs", "assay_type": "in vivo, dog", "procedure": "Parameter Time Vehicle 50mg/kg 100mg/kg 200mg/kg\nDiastolic Blood Pressure (mm Hg) 0 min 79 ± 4 83 ± 4 86 ± 4 87 ± 1\nAdult male Beagle dogs implanted previously with a DSI Physio Tel TL11-M2 D70-PCT intramuscular\ntelemetry device received either: 50mg/kg, 100mg/kg or 200mg/kg p.o. VSN16R in water or water.\nThe results represent the mean ± SD. n=4."}, "mouse Gpr55": {"target": "T1, mouse Gpr55 (Mus musculus, UniProt Q3UJF0)", "T1 construct": "expressed in transfected cells; host or cells: DBT cells", "T1 sequence (Q3UJF0 whole entry)": "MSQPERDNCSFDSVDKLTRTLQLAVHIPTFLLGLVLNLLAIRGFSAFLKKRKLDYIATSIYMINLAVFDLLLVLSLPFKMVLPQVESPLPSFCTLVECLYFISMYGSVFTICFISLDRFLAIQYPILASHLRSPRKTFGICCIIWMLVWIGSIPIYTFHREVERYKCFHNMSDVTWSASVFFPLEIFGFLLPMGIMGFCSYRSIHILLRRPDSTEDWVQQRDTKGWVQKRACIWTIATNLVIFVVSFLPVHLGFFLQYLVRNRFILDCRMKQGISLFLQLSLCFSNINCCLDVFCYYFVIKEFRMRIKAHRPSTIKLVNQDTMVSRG", "test": "Nuclear CREB expression, DBT cells transfected with mouse Gpr55", "assay_type": "cell-based", "conditions": "10 μM"}, "[2]": {"system": "Ca2+ channel (L verapamil site)", "test": "Receptor binding profile of VSN16R", "set-up": "species or system human", "conditions": "10µM VSN16R"}, "GPR6": {"target": "T2, GPR6 (Homo sapiens, UniProt P46095)", "T2 construct": "purchased Cerep; Chantest; DiscoveRx; Multispan; MDS Pharma Services", "T2 sequence (P46095 whole entry)": "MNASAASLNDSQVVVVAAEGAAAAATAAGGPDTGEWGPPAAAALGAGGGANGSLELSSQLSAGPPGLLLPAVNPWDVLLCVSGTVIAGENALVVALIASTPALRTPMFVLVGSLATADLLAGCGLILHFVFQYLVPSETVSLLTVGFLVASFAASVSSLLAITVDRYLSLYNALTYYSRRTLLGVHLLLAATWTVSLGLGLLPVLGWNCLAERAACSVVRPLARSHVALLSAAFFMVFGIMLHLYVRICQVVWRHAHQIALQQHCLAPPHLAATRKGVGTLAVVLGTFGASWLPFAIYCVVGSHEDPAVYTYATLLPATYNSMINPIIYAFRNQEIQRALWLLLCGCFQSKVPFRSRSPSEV", "test": "Receptor binding profile of VSN16R", "conditions": "10µM VSN16R"}, "GPR12": {"target": "T3, GPR12 (Homo sapiens, UniProt P47775)", "T3 construct": "purchased Cerep; Chantest; DiscoveRx; Multispan; MDS Pharma Services", "T3 sequence (P47775 whole entry)": "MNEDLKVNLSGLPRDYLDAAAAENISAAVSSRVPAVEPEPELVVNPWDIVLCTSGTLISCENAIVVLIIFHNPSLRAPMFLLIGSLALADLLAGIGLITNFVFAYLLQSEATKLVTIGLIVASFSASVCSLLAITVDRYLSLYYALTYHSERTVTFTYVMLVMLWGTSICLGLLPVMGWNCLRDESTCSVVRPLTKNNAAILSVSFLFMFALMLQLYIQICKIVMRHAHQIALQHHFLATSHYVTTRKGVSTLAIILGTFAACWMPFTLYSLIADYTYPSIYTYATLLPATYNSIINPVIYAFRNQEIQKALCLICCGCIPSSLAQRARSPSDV", "test": "Receptor binding profile of VSN16R", "conditions": "10µM VSN16R"}, "CYP450 3A5": {"target": "CYP450 3A5 (Homo sapiens, UniProt P20815)", "sequence (P20815 whole entry)": "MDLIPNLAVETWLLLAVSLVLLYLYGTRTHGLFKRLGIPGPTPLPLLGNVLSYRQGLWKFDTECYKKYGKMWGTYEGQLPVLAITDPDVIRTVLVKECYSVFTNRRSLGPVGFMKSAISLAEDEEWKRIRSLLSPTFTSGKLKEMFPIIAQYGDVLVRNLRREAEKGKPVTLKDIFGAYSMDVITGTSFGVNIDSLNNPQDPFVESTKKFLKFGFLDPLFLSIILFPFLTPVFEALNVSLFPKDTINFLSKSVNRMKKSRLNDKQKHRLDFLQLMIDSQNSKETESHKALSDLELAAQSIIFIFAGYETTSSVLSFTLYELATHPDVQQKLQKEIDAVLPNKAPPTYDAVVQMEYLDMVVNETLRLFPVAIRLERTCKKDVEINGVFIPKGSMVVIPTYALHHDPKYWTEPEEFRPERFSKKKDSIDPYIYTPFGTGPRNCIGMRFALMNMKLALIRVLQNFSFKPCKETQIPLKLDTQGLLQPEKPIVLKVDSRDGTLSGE", "description": "IC50 Inhibition of substrate binding\nInhibition of binding of either 3-cyano-7-ethoxycoumarin, dibenzylfluorescein or 7-benzyoxy-4-\n(trifluoromethyl) coumarin in human enzyme transfected BTI NN-5B1-4 cells or Sf9 insect cells or\ninhibition of dextromethorphan substrate to CYP450 2D6 in liver microsomes."}}}
{"smiles": "C[C@H](CO)NC(=O)c1cccc(/C=C\\CCCC(=O)N(C)C)c1", "note": "[VSN16R]", "values": [{"measurement": "half-life at 1 μM", "setting": "[1]", "value": "> 100", "unit": "min"}, {"measurement": "Result of Tissue Analysis in Dogs", "setting": "dogs; dog, in vivo", "value": "Negative"}, {"measurement": "NOEL", "setting": "dogs; p.o., dogs", "value": 100, "unit": "mg/kg"}, {"measurement": "Arterial Pressure", "setting": "Beagle dogs; 50mg/kg p.o., 30min", "value": "97 ± 5", "unit": "mm Hg"}, {"measurement": "Diastolic Blood Pressure", "setting": "Beagle dogs; 50mg/kg p.o., 30min", "value": "83 ± 4", "unit": "mm Hg"}, {"measurement": "Heart Rate", "setting": "Beagle dogs; 50mg/kg p.o., 30min", "value": "104 ± 9", "unit": "bpm"}, {"measurement": "Systolic Blood Pressure", "setting": "Beagle dogs; 50mg/kg p.o., 30min", "value": "141 ± 6", "unit": "mm Hg"}, {"measurement": "Arterial Pressure", "setting": "Beagle dogs; 50mg/kg p.o., 60min", "value": "106 ± 5", "unit": "mm Hg"}, {"measurement": "Diastolic Blood Pressure", "setting": "Beagle dogs; 50mg/kg p.o., 60min", "value": "87 ± 4", "unit": "mm Hg"}, {"measurement": "Heart Rate", "setting": "Beagle dogs; 50mg/kg p.o., 60min", "value": "119 ± 9", "unit": "bpm"}, {"measurement": "Systolic Blood Pressure", "setting": "Beagle dogs; 50mg/kg p.o., 60min", "value": "143 ± 6", "unit": "mm Hg"}, {"measurement": "Arterial Pressure", "setting": "Beagle dogs; 100mg/kg p.o., 30min", "value": "99 ± 5", "unit": "mm Hg"}, {"measurement": "Diastolic Blood Pressure", "setting": "Beagle dogs; 100mg/kg p.o., 30min", "value": "86 ± 4", "unit": "mm Hg"}, {"measurement": "Heart Rate", "setting": "Beagle dogs; 100mg/kg p.o., 30min", "value": "114 ± 9", "unit": "bpm"}, {"measurement": "Systolic Blood Pressure", "setting": "Beagle dogs; 100mg/kg p.o., 30min", "value": "139 ± 6", "unit": "mm Hg"}, {"measurement": "Arterial Pressure", "setting": "Beagle dogs; 100mg/kg p.o., 60min", "value": "106 ± 5", "unit": "mm Hg"}, {"measurement": "Diastolic Blood Pressure", "setting": "Beagle dogs; 100mg/kg p.o., 60min", "value": "91 ± 4", "unit": "mm Hg"}, {"measurement": "Heart Rate", "setting": "Beagle dogs; 100mg/kg p.o., 60min", "value": "111 ± 9", "unit": "bpm"}, {"measurement": "Systolic Blood Pressure", "setting": "Beagle dogs; 100mg/kg p.o., 60min", "value": "138 ± 6", "unit": "mm Hg"}, {"measurement": "Arterial Pressure", "setting": "Beagle dogs; 200mg/kg p.o., 30min", "value": "97 ± 5", "unit": "mm Hg"}, {"measurement": "Diastolic Blood Pressure", "setting": "Beagle dogs; 200mg/kg p.o., 30min", "value": "87 ± 1", "unit": "mm Hg"}, {"measurement": "Heart Rate", "setting": "Beagle dogs; 200mg/kg p.o., 30min", "value": "125 ± 9", "unit": "bpm"}, {"measurement": "Systolic Blood Pressure", "setting": "Beagle dogs; 200mg/kg p.o., 30min", "value": "130 ± 6", "unit": "mm Hg"}, {"measurement": "Arterial Pressure", "setting": "Beagle dogs; 200mg/kg p.o., 60min", "value": "102 ± 5", "unit": "mm Hg"}, {"measurement": "Diastolic Blood Pressure", "setting": "Beagle dogs; 200mg/kg p.o., 60min", "value": "88 ± 4", "unit": "mm Hg"}, {"measurement": "Heart Rate", "setting": "Beagle dogs; 200mg/kg p.o., 60min", "value": "134 ± 9", "unit": "bpm"}, {"measurement": "Systolic Blood Pressure", "setting": "Beagle dogs; 200mg/kg p.o., 60min", "value": "130 ± 6", "unit": "mm Hg"}, {"measurement": "Cardiovascular issues", "setting": "Beagle dogs; dog, in vivo", "value": "no cardiovascular issues"}, {"measurement": "Hypotension", "setting": "Beagle dogs; dogs", "value": "did not induce hypotension"}, {"measurement": "Activity on DBT cells transfected with mouse Gpr55", "setting": "mouse Gpr55", "value": "Lack of activity"}, {"measurement": "Activity", "setting": "[2]", "value": "Negligible Activity"}, {"measurement": "Activity", "setting": "GPR6", "value": "Negligible Activity"}, {"measurement": "Activity", "setting": "GPR12", "value": "Negligible Activity"}, {"measurement": "IC50", "setting": "CYP450 3A5", "value": "> 10", "unit": "µM"}]}
